Experimental data as given in publication PMC4377976, “Bioactive Isopimarane Diterpenes from the Fungus, Epicoccum sp. HS-1, Associated with Apostichopus japonicus” (Marine Drugs, 2015).

target: α-glucosidase; experiment: p-nitrophenyl glycoside hydrolysis assay, absorbance at […] nm; format: biochemical

IC50 [µM] | SMILES
4.6 ± 0.1 | C=C[C@@]1(C)C[C@@H](O)C2=C(C(=O)[C@@]3(O)OC[C@@]24CCCC(C)(C)[C@@]43O)[C@H]1OC [compound 1, Isopimarane diterpene (1)]
11.9 ± 0.4 | C=C[C@]1(C)C=C2[C@@H](O)[C@@]3(O)OC[C@@]4(CCCC(C)(C)[C@@]43O)[C@@]2(O)CC1 [compound 2, 11-deoxydiaporthein A]

SMILES | IC50 [µM]
Oc1ccc(/C=C/c2cc(O)cc(O)c2)cc1 [Resveratrol, reference compound] | 31.2 ± 4.4
